Values joined by “and” are separate entries in the source; they are usually repeats but may differ in a detail not shown here. Identical values can stand only once.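 Grown in 96-well plates, cells were treated for 48 hours with each compound at five concentrations. Insufficient inhibition: endpoint recorded as highest concentration tested. Abbreviation: GI50, concentration required for 50% inhibition of growth. TGI is the concentration that stops growth completely.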
Tests used:
Experiment in all cases: NCI tumour cell line growth inhibition, 48 h
SK-OV-3 ovarian = test system: SK-OV-3 ovarian
K-562 leukemia = test system: K-562 leukemia
M14 melanoma = test system: M14 melanoma
SW-620 colon = test system: SW-620 colon
TK-10 renal = test system: TK-10 renal
SNB-75 CNS = test system: SNB-75 CNS
786-0 renal = test system: 786-0 renal
OVCAR-3 ovarian = test system: OVCAR-3 ovarian
SF-295 CNS = test system: SF-295 CNS
BT-549 breast = test system: BT-549 breast

SMILES	TGI (SK-OV-3 ovarian)	TGI (K-562 leukemia)	TGI (M14 melanoma)	TGI (SW-620 colon)	TGI (TK-10 renal)	TGI (SNB-75 CNS)	TGI (786-0 renal)	TGI (OVCAR-3 ovarian)	TGI (SF-295 CNS)	TGI (BT-549 breast)	GI50 (TK-10 renal)	GI50 (OVCAR-3 ovarian)	GI50 (SK-OV-3 ovarian)	GI50 (K-562 leukemia)	GI50 (M14 melanoma)	GI50 (SW-620 colon)
N#Cc1nc(Cc2cccs2)oc1N	> 100 µM	> 100 µM	> 100 µM	> 100 µM	> 100 µM	> 100 µM	> 100 µM									
c1csc(-c2csc(-c3cccs3)c2)c1	> 100 µM		> 100 µM	> 100 µM	> 100 µM	> 100 µM	> 100 µM	> 100 µM	> 100 µM							
CC(=O)Nc1oc(C)nc1C#N	> 100 µM	> 100 µM	> 100 µM	> 100 µM	> 100 µM		> 100 µM									
O=C(O)C1(Cc2ccc3c(c2)CCC3)Cc2cc3c(cc2C1)CCC3	> 100 µM	> 100 µM	> 100 µM	> 100 µM	> 100 µM	> 100 µM	> 100 µM	> 100 µM		> 100 µM						
CC(=O)Oc1ccc(-c2c(OC(C)=O)c(OC(C)=O)c(-c3ccc(OC(C)=O)c(OC(C)=O)c3)c(OC(C)=O)c2OC(C)=O)cc1	69 µM	43.5 µM	33.7 µM	38.6 µM	29.6 µM	31.9 µM	30.6 µM	30 µM	21.3 µM							
COC(=O)C[C@H]1[C@]2(C)C3=C(C)[C@H](c4ccoc4)CC3O[C@@H]2[C@@H]2OC(=O)[C@]3(C)CCC(=O)[C@@]1(C)[C@@H]23 (some centres not stated)	> 100 µM	> 100 µM	> 100 µM	> 100 µM		> 100 µM	> 100 µM	> 100 µM	> 100 µM	> 100 µM						
COc1ccc(/C(Cl)=C(\C=O)c2ccc(Cl)cc2)cc1	> 100 µM	> 100 µM	> 100 µM	> 100 µM	> 100 µM	26.2 µM		32.1 µM	19.1 µM							
CN(CCc1ccccn1)C(=S)N/N=C/c1ccccn1	> 51.3 µM	0.0493 µM	2.34 µM	> 100 µM	0.668 µM	> 100 µM	> 38.8 µM	25.9 µM	> 43.5 µM							
O=C1C(=O)C(CCCO)(CCCO)CCCCCCCCC1(CCCO)CCCO	> 100 µM	69.6 µM	> 100 µM	> 100 µM	> 100 µM	> 100 µM	> 100 µM	> 100 µM	> 100 µM							
CCCCC[C@@H]1OC(=O)[C@@]2(CC3c4ccccc4C2c2ccccc23)[C@H]1C(=O)OC	> 100 µM	> 100 µM	> 100 µM	> 100 µM	> 100 µM		> 100 µM	> 100 µM	> 100 µM	> 100 µM						
CC(=O)N/N=C1\NN(C(C)=O)C2(S1)C(=O)Nc1ccccc12 (configuration not stated)	> 100 µM	> 100 µM	> 100 µM	> 100 µM	> 100 µM	> 100 µM	> 100 µM	> 100 µM								
CC1(C)CN=C(c2ccc3ccccc3c2O)N1		> 100 µM	> 100 µM	> 100 µM	> 100 µM	> 100 µM	> 100 µM	> 100 µM	9.29 µM	> 100 µM						
COc1ccc(C2=C(N)c3ccccc3C2=O)cc1	> 100 µM		> 100 µM	> 100 µM	> 100 µM	78.7 µM	> 100 µM	> 100 µM	> 100 µM	> 100 µM						
C#Cc1ccccc1C(=O)OC	> 100 µM	> 100 µM	> 100 µM	> 100 µM	> 100 µM	> 100 µM		> 100 µM	> 100 µM							
COc1cccc2c1C(=O)c1c(O)c3c(c(O)c1C2=O)C[C@](O)(C(=O)CO)CC3OC1CC(N)C(OC2CCCCO2)C(C)O1 (some centres not stated)	8.28 µM	6.5 µM		6.48 µM		1.18 µM		4.56 µM	0.672 µM							
CCCCCCCCCCCOCCC1C(C(C)OCCN2CCCC2)OC2OC(C)(C)OC21 (configuration not stated)	8.96 µM		1.01 µM	3.55 µM	6.6 µM	7.07 µM	5.88 µM	12.3 µM	5.71 µM	7.76 µM						
Nc1ncnc2c(C3OC(CO)C(O)C3O)c[nH]c12 (configuration not stated)		0.116 µM and 0.0193 µM	0.336 µM and 0.225 µM		0.471 µM	0.0984 µM and 0.459 µM	16.4 µM	0.0342 µM and 0.124 µM	1.02 µM	0.237 µM and 0.297 µM	0.0163 µM	0.0116 µM				
Cc1cccc(-c2cc(=O)c3c(C)ccnc3[nH]2)c1	> 100 µM	> 100 µM	> 100 µM		> 100 µM	> 100 µM	> 100 µM			> 100 µM						
C=C1C(=O)OC2C1CC1OC2C(C)CCC/C(C)=C\CCC1(C)O (configuration not stated)	119 µM	48.5 µM		32.6 µM		51.5 µM		32.6 µM	85.2 µM							
O=c1[nH]nc(Cc2ccc([N+](=O)[O-])cc2)[nH]1		> 100 µM	> 100 µM	> 100 µM	> 100 µM	> 100 µM	> 100 µM	> 100 µM	> 100 µM	> 100 µM						
CCOC(=O)Cn1c(C)nc2nn(Cc3ccccc3)cc2c1=O	> 100 µM	> 100 µM	> 100 µM	> 100 µM	> 100 µM		> 100 µM	> 100 µM	> 100 µM	> 100 µM						
COc1ccc(N2C(=O)CSC2c2cc(OC)c(OC)c(OC)c2)cc1 (configuration not stated)	71 µM	> 100 µM	57.8 µM	> 100 µM	> 100 µM		48.4 µM	64.8 µM	71.9 µM	52.1 µM						
CCC[CH2][Ge]([CH2]CCC)([CH2]CCC)[O]C(=O)CCl	20.6 µM	31.6 µM	6.94 µM	17.4 µM	17.7 µM			16.3 µM			3.4 µM	2.33 µM	5.2 µM	0.879 µM	1.25 µM	4.19 µM
Cc1cn(C2CC(O)C(Cn3cc(Cn4nc(Br)c(=O)[nH]c4=O)nn3)O2)c(=O)[nH]c1=O (configuration not stated)	> 100 µM		> 100 µM	> 100 µM	> 100 µM	> 100 µM		> 100 µM	> 100 µM	> 100 µM						

Source: PubChem BioAssay (NCI)
